Earlier results, collected in patent US10950327B2, “Methods and tools for detecting, diagnosing, predicting, prognosticating, or treating a neurobehavioral phenotype in a subject” (BlackThorn Therapeutics, Inc., priority 2017, dated 2021).

How the values were obtained:
[1] = system: mean functional connectivity (Global Brain Connectivity, GBC); details: healthy human subjects
[2] = system: patients with schizophrenia
[3] = in vivo
5HT6 receptors = 5HT6 receptors (Homo sapiens, UniProt P50406)
[4] = biological target: muscarinic M3 (CHRM3) receptor (Homo sapiens, UniProt P20309)
Sequence of muscarinic M3 (CHRM3) receptor (P20309 whole entry): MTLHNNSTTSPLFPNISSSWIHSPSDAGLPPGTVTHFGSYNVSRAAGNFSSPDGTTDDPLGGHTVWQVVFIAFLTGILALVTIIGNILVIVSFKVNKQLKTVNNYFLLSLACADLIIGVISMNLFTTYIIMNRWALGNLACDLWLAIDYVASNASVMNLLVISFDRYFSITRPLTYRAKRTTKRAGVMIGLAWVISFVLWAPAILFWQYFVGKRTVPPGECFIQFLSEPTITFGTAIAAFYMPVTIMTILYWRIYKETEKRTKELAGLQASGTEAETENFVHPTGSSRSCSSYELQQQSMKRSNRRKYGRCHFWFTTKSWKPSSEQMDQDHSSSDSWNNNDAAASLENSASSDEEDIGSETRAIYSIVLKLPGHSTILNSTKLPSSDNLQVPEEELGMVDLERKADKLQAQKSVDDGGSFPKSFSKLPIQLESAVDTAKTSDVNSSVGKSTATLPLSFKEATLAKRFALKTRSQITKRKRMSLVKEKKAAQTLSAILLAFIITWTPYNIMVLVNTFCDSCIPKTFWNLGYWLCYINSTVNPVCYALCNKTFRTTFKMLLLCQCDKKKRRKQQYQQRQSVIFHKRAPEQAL

Sequence of 5HT6 receptors (P50406 whole entry): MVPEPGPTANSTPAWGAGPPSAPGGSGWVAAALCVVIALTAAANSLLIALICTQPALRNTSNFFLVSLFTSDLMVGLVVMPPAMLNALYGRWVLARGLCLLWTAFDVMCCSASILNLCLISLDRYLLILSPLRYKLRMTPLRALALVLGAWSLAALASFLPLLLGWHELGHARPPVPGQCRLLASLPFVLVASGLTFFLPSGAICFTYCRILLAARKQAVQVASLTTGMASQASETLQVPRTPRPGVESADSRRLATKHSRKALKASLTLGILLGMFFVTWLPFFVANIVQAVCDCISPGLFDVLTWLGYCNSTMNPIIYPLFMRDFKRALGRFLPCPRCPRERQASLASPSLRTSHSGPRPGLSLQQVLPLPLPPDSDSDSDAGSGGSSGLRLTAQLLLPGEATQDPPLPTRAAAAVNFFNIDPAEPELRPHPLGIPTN

CCN(CC)C(=O)[C@@H]1C=C2c3cccc4[nH]cc(c34)C[C@H]2N(C)C1 [LSD, lysergic acid diethylamide]
change in mean functional connectivity (Global Brain Connectivity, GBC) ([1]; acute administration, fMRI-derived cortical map): large increase in occipital visual cortex

Cc1nc2cccc(C(F)(F)F)c2c(=O)n1-c1ccc(OCCCN2CCCC2)cc1 [MK-0249]
improvement of cognitive deficits [2]: failed to improve cognitive deficits

O=C1Nc2ccc(Cl)cc2[C@@](C#CC2CC2)(C(F)(F)F)O1 [efavirenz]
suppression of HIV-1 (HIV-1): effective in suppressing HIV-1
risk of neuropsychiatric symptoms [3]: increase the risk of neuropsychiatric symptoms
activity at 5HT6 receptors (5HT6 receptors): inverse agonist activity
activity at muscarinic M3 (CHRM3) receptor [4]: antagonist activity

O=C(c1ccc(F)cc1)C1CCN(CCn2c(=O)[nH]c3ccccc3c2=O)CC1 [ketanserin]
effect on LSD-induced neural change and behavioral effects ([1]; pre-administration before LSD): blocked
